Experimental data reported in ChEMBL document CHEMBL5034030, “Dolabrane Diterpenoids from the Chinese Liverwort Notoscyphus lutescens” (J Nat Prod, 2021).
Activity calls are given as the source filed them. The calls are words filed in the database; no cut-off is given here.

What was measured:
Format in all cases: cell-based
[1] = target: NAD(P)H dehydrogenase [quinone] 1 (Mus musculus) (UniProt Q64669); experiment: Induction of quinone reductase activity in mouse Hepa1c1c7 cells assessed as maximum fold change at 50 uM incubated for 24 hrs by MTT based assay; conditions: filed as activator
[2] = Cytotoxicity against mouse Hepa1c1c7 cells incubated for 24 hrs by MTT based assay; conditions: Hepa-1c1c7, 24 h
[3] = target: NAD(P)H dehydrogenase [quinone] 1 (Mus musculus) (UniProt Q64669); experiment: Induction of quinone reductase activity in mouse Hepa1c1c7 cells assessed as maximum fold change at 3.1 to 100 uM incubated for 24 hrs by MTT based assay; conditions: dose 3.1-100 µM

Sequence of NAD(P)H dehydrogenase [quinone] 1 (Mus musculus) (Q64669 whole entry): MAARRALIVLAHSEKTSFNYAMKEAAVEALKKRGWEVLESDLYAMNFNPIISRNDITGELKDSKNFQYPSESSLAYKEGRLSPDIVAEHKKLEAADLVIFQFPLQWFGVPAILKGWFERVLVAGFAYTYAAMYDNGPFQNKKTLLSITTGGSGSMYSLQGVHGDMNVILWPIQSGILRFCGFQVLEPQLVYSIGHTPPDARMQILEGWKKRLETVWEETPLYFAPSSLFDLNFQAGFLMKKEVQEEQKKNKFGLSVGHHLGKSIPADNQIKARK

SMILES	Activity [1]	Activity [3]	IC50 [2]
C=C[C@@]1(C)CC[C@@]2(C)[C@@H](CC[C@]34COC(=O)[C@@H]3C[C@H](O)C[C@H]24)C1	Active	–	> 50 µM
CC1=C(Cc2ccccc2)C(=O)O[C@H]1Cc1ccccc1	–	inactive	> 50 µM
C=C[C@@]1(C)CC[C@]2(C)C3C[C@H]4C=C(CO)[C@]3(CC[C@H]2C1)C(OC)O4 (stereo not given in full)	Active	–	> 50 µM
C=C[C@@]1(C)CC[C@@]2(C)[C@@H](CC[C@@]3(C)[C@@H]2CCC(=O)[C@@H]3C)C1	–	inactive	> 50 µM
C=C[C@@]1(C)CC[C@]2(C)C3C[C@H]4C=C(C=O)[C@]3(CC[C@H]2C1)C(O)O4 (stereo not given in full)	Active	–	> 50 µM

Continued, in another order:

Activity [1]	Activity [3]	SMILES	IC50 [2]
Active	–	C=C[C@@]1(C)CC[C@]2(C)C3=C(CC[C@H]2C1)[C@](O)(CO)[C@@H](O)[C@H](Cl)C3	> 50 µM
–	inactive	C=C[C@@]1(C)CC[C@@]2(C)[C@@H](CC=C3[C@@H]2C[C@@H](Cl)[C@H](O)[C@@]3(O)CO)C1	> 50 µM
–	inactive	C=C[C@@]1(C)CC[C@@]2(C)[C@@H](C[C@@H]3[C@@H](O)C4=C[C@@H](O)C[C@H]2[C@@]43C)C1	> 50 µM
–	inactive	C=C[C@@]1(C)CC[C@@]2(C)[C@@H](CC[C@]34CO[C@H](OC)C3=C[C@@H](O)C[C@@H]42)C1	> 50 µM
–	inactive	C=C[C@@]1(C)CC[C@@]2(C)[C@@H](CC[C@]34CO[C@@H](OC)C3=C[C@@H](O)C[C@@H]42)C1	> 50 µM
